Assays:
[1] = test system: nitric oxide (NO) production in PMA-differentiated THP1 macrophages; assay: Nitric oxide (NO) production in LPS treated PMA-differentiated THP1 macrophages; format: cell-based, human; conditions: pre-treatment 2 h, then LPS 48 h
Experimental: Methods: […] Total nitrite was measured using nitric oxide colorimetric assay kit (BioVision, […]-200) according to the manufacturer's instructions. […] Untreated cells were used as the control. After incubation, cell cultures were then stimulated with LPS for an additional 48 h (total volume of 200 μl per well). The culture supernatant was collected from each well and replaced with 100 μl of fresh 1% FBS medium. […] 42.5 μL of cultured supernatant was used for measuring nitrite concentration. Total nitrite was measured using nitric oxide colorimetric assay kit according to the manufacturer's instructions.

[2] = test system: TNF-α production in PMA-differentiated THP1 macrophages; assay: TNF-α production in LPS treated PMA-differentiated THP1 macrophages (ELISA); format: cell-based, human; conditions: 1.23, 3.7, 11.11, 33.33 and 100 μg/mL, then LPS 48 h
Experimental: (§1) Methods: […] THP1 monocytes were differentiated to macrophages using phorbol 12-myristate 13-acetate (PMA, Sigma, P1585). The […] The culture supernatant was collected from each well and replaced with 100 μl of fresh 1% FBS medium. […] 50 μl of cultured supernatant was used for measuring TNF-α and IL6 concentration. TNF-α was measured using human TNF-α DuoSet ELISA kit (R&D systems, DY210-05) and IL6 was determined using human IL6 DuoSet ELISA kit (R&D systems, DY206-05) according to the manufacturer's instructions. […] THP1 monocytes were differentiated to macrophages as previously described. […] Untreated cells were used as the control. After incubation, cell cultures were then stimulated with LPS for an additional 48 h (total volume of 200 μL per well). The culture supernatant was collected from each well and replaced with 100 μL of fresh 1% FBS medium. […] 50 μl of cultured supernatant was used for measuring TNF-α and IL6 concentration. TNF-α was measured using human TNF-α DuoSet ELISA kit and IL6 was determined using human IL6 DuoSet ELISA kit according to the manufacturer's instructions.

[3] = test system: IL-6 production in PMA-differentiated THP1 macrophages; assay: IL-6 production in LPS treated PMA-differentiated THP1 macrophages (ELISA); format: cell-based, human; conditions: 1.23, 3.7, 11.11, 33.33 and 100 μg/mL, then LPS 48 h
Experimental: as §1

[4] = test system: THP1 cells; format: cell-based
[5] = test system: MCF7 cells; format: cell-based
[6] = test system: Jurkat cells; format: cell-based

SMILES	NO, EC50 [1]	effect on secretion of TNF-α [2]	effect on secretion of IL-6 [3]	cytotoxicity towards THP1 cell-line [4]	cytotoxicity towards MCF7 cell-line [5]	Jurkat, TC50 [6]
O=C(C=Cc1ccc(O)c(O)c1)O[C@@H](C(=O)O)[C@@H](OC(=O)C=Cc1ccc(O)c(O)c1)C(=O)O [Chicoric acid, (2R,3R)-O-dicaffeoyltartaric acid]	25.3 µg/mL	minimal effects	minimal effects			
O=C(/C=C/c1ccc(O)c(O)c1)O[C@H]1[C@H](O)C[C@](O)(C(=O)O)C[C@H]1O [4-CQA, 4-O-caffeoylquinic acid]	71.9 µg/mL	minimal effects	minimal effects	did not appear to be individually cytotoxic	did not appear to be individually cytotoxic	49.9 µg/mL
OC[C@H]1O[C@@H](Oc2cc3c(O)cc(O)cc3[o+]c2-c2ccc(O)c(O)c2)[C@H](O)[C@@H](O)[C@H]1O [Cyanidin 3-galactoside, cyanidin 3-galactoside]	98.4 µg/mL	minimal effects	minimal effects	did not appear to be individually cytotoxic	did not appear to be individually cytotoxic	53.5 µg/mL
O=C(/C=C/c1ccc(O)c(O)c1)O[C@@H]1C[C@](O)(C(=O)O)C[C@@H](O)[C@H]1O [Neochlorogenic acid, 3-O-caffeoylquinic acid]	80.5 µg/mL	minimal effects	minimal effects			

From patent US20240147927A1, “METHODS OF HIGH PRODUCTION OF POLYPHENOLS FROM RED LETTUCES AND USES THEREOF” (SignalChem Plantech Corporation, priority 2021, published 2024)
